In ChEMBL document CHEMBL4334516, “Kinase Chemodiversity from the Arctic: The Breitfussins” (J Med Chem, 2019):

Tests used:
[1] = test system: A2058; assay: Cytotoxicity in human A2058 cells assessed as reduction in cell viability incubated for 72 hrs by MTS assay; assay type: functional, cell-based; conditions: A2058, 72 h
[2] = biological target: T1, Mitogen-activated protein kinase 15 (Homo sapiens, UniProt Q8TD08); assay: Inhibition of ERK8 (unknown origin) by [33P]-ATP filter binding kinase assay
T1 sequence (Q8TD08 whole entry): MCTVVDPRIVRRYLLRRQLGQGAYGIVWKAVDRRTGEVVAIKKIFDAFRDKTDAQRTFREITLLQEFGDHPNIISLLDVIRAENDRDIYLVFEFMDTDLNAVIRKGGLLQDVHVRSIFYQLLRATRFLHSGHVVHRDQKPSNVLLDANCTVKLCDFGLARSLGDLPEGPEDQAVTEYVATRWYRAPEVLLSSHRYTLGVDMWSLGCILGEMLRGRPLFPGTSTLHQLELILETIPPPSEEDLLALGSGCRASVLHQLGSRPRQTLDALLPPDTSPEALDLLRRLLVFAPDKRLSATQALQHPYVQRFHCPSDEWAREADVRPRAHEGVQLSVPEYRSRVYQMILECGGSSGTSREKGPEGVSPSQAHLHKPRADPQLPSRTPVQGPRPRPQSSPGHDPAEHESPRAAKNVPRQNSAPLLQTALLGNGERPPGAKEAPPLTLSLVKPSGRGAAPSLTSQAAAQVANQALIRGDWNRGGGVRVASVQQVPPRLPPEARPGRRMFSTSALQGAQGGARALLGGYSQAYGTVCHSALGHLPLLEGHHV

[3] = test system: MV4-11; assay: Cytotoxicity in human MV4-11 cells assessed as reduction in cell viability incubated for 72 hrs by MTS assay; assay type: functional, cell-based; conditions: MV4-11, 72 h
[4] = biological target: Aurora kinase B (Homo sapiens, UniProt Q96GD4); assay: Inhibition of Aurora B (unknown origin) by [33P]-ATP filter binding kinase assay
[5] = biological target: Serine/threonine-protein kinase pim-2 (Homo sapiens, UniProt Q9P1W9); assay: Inhibition of PIM2 (unknown origin) by [33P]-ATP filter binding kinase assay
[6] = biological target: Serine/threonine-protein kinase pim-3 (Homo sapiens, UniProt Q86V86); assay: Inhibition of PIM3 (unknown origin) by [33P]-ATP filter binding kinase assay
[7] = test system: SK-BR-3; assay: Cytotoxicity in human SK-BR-3 cells assessed as reduction in cell viability incubated for 72 hrs by MTS assay; assay type: functional, cell-based; conditions: SK-BR-3, 72 h
[8] = biological target: Serine/threonine-protein kinase pim-1 (Homo sapiens, UniProt P11309); assay: Inhibition of PIM1 (unknown origin) by [33P]-ATP filter binding kinase assay
[9] = biological target: T2, Aurora kinase A (Homo sapiens, UniProt O14965); assay: Inhibition of Aurora A (unknown origin) by [33P]-ATP filter binding kinase assay
T2 sequence (O14965 whole entry): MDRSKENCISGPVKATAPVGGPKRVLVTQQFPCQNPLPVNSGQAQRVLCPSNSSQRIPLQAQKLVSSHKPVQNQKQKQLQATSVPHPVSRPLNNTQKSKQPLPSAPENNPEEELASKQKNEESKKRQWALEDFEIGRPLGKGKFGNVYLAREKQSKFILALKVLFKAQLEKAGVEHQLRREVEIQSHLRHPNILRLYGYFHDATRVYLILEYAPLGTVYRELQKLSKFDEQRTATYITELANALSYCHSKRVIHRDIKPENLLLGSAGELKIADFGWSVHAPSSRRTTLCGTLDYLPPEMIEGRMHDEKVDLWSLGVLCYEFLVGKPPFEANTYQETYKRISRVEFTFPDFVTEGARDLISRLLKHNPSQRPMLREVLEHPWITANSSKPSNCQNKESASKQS

[10] = biological target: T3, Mitogen-activated protein kinase kinase kinase kinase 2 (Homo sapiens, UniProt Q12851); assay: Inhibition of GCK (unknown origin) by [33P]-ATP filter binding kinase assay
T3 sequence (Q12851 whole entry): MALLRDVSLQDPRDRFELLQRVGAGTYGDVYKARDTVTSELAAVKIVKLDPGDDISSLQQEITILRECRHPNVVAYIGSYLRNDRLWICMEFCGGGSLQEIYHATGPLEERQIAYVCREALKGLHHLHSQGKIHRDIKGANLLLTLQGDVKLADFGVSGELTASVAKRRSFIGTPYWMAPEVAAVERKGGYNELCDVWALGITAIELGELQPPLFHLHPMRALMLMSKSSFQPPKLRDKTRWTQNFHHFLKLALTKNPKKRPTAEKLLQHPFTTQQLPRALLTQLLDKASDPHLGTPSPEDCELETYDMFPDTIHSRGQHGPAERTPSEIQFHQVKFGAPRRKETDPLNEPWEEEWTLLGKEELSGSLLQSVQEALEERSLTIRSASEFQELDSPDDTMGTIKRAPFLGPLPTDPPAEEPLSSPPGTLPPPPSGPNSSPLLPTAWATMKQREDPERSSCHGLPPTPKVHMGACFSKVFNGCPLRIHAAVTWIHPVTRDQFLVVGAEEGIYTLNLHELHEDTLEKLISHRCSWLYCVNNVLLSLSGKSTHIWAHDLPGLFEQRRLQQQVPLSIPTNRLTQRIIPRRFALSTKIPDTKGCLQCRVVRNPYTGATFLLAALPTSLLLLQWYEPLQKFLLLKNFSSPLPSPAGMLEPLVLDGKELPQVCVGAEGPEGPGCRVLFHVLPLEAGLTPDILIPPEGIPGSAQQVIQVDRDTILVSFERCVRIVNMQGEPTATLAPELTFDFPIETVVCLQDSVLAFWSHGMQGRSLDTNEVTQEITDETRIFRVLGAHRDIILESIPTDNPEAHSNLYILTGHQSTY

[11] = biological target: Mitogen-activated protein kinase kinase kinase 11 (Homo sapiens, UniProt Q16584); assay: Inhibition of MLK3 (unknown origin) by [33P]-ATP filter binding kinase assay
[12] = biological target: Mitogen-activated protein kinase kinase kinase 9 (Homo sapiens, UniProt P80192); assay: Inhibition of MLK1 (unknown origin) by [33P]-ATP filter binding kinase assay
[13] = biological target: T4, Mitogen-activated protein kinase kinase kinase 7 (Homo sapiens, UniProt O43318); assay: Inhibition of TAK1 (unknown origin) by [33P]-ATP filter binding kinase assay
T4 sequence (O43318 whole entry): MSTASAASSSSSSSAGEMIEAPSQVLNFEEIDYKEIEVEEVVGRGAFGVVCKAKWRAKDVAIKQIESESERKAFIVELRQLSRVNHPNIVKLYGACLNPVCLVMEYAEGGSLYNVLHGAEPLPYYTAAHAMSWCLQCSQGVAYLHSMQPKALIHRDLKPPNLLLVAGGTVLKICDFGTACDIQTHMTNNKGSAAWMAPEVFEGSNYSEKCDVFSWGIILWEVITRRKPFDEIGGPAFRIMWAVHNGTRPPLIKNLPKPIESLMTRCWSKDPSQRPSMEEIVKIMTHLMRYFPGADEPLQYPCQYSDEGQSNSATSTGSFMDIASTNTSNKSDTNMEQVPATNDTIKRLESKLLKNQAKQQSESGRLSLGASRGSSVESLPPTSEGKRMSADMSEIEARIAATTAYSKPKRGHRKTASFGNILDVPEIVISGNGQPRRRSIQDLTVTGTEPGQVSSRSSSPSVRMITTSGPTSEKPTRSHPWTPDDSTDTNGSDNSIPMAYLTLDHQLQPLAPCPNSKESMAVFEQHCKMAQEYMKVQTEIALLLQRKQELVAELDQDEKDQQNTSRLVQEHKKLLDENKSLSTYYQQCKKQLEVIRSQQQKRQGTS

[14] = test system: MDA-MB-468; assay: Cytotoxicity in human MDA-MB-468 cells assessed as reduction in cell viability incubated for 72 hrs by MTS assay; assay type: functional, cell-based; conditions: MDA-MB-468, 72 h
[15] = biological target: Receptor-interacting serine/threonine-protein kinase 2 (Homo sapiens, UniProt O43353); assay: Inhibition of RIPK2 (unknown origin) by [33P]-ATP filter binding kinase assay
[16] = test system: MOLT-4; assay: Cytotoxicity in human MOLT4 cells assessed as reduction in cell viability incubated for 72 hrs by MTS assay; assay type: functional, cell-based; conditions: MOLT-4, 72 h
[17] = test system: MCF7; assay: Cytotoxicity in human MCF7 cells assessed as reduction in cell viability incubated for 72 hrs by MTS assay; assay type: functional, cell-based; conditions: MCF7, 72 h
[18] = biological target: Dual specificity tyrosine-phosphorylation-regulated kinase 1A (Homo sapiens, UniProt Q13627); assay: Inhibition of DYRK1A (unknown origin) by [33P]-ATP filter binding kinase assay
[19] = test system: MRC5; assay: Cytotoxicity in human MRC5 cells assessed as reduction in cell viability incubated for 72 hrs by MTS assay; assay type: cell-based; conditions: MRC5, 72 h
[20] = biological target: Serine/threonine-protein kinase SIK3 (Homo sapiens, UniProt Q9Y2K2); assay: Inhibition of SIK3 (unknown origin) by [33P]-ATP filter binding kinase assay
[21] = test system: HT-29; assay: Cytotoxicity in human HT-29 cells assessed as reduction in cell viability incubated for 72 hrs by MTS assay; assay type: functional, cell-based; conditions: HT-29, 72 h
[22] = biological target: Cyclin-dependent kinase 9 (Homo sapiens, UniProt P50750); assay: Inhibition of CDK9 (unknown origin)
Chain of Cyclin-dependent kinase 9 (P50750 whole entry): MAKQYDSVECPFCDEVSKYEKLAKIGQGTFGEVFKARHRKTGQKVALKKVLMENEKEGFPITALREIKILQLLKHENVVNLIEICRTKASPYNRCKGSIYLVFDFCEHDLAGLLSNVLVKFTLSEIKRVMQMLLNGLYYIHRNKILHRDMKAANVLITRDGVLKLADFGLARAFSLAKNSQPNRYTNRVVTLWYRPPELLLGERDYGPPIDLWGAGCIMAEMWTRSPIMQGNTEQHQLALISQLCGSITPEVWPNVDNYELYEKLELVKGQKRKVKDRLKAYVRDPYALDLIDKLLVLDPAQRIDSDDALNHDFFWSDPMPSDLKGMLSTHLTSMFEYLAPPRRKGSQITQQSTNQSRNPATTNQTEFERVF

Chain of Serine/threonine-protein kinase pim-2 (Q9P1W9 whole entry): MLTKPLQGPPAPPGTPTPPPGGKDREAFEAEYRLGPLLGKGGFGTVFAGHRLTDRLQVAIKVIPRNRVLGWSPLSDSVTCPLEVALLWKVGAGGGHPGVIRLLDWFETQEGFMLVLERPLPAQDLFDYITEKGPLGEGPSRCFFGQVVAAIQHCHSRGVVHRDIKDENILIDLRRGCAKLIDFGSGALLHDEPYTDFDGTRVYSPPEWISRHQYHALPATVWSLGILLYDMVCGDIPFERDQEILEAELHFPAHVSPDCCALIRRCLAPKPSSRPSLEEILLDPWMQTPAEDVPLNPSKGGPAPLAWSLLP
Chain of Serine/threonine-protein kinase pim-1 (P11309 whole entry): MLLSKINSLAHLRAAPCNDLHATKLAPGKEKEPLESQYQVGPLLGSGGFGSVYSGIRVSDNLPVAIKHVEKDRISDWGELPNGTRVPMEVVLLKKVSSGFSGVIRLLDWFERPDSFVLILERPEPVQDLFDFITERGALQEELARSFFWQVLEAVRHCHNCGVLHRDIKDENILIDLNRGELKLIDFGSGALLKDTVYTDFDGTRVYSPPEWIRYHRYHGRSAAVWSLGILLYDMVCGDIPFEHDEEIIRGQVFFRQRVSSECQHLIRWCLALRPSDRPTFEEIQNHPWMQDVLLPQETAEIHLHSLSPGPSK
Chain of Aurora kinase B (Q96GD4 whole entry): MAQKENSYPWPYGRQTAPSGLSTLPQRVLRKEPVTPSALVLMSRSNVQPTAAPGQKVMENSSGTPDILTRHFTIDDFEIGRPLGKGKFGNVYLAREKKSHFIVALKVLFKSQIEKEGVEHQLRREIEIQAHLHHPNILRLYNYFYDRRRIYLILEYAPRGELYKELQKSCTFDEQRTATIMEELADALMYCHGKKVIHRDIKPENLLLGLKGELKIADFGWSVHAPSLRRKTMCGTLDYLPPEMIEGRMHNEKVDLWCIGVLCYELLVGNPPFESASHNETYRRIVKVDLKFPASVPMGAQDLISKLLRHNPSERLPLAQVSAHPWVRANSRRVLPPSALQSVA
Chain of Receptor-interacting serine/threonine-protein kinase 2 (O43353 whole entry): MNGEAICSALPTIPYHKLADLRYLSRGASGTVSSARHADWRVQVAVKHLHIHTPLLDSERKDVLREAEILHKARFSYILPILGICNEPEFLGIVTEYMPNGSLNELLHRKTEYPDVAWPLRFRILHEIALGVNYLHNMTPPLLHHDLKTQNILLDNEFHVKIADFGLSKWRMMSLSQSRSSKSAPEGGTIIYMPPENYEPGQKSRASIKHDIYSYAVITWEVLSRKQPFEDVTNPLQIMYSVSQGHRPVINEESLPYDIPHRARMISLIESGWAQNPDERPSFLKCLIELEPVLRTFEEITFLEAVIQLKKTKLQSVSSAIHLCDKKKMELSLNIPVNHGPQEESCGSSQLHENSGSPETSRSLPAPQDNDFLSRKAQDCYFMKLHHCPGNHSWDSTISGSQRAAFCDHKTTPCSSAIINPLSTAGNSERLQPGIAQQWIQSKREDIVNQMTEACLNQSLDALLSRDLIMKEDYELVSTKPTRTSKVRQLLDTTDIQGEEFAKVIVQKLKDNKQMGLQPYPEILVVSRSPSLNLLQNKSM
Chain of Mitogen-activated protein kinase kinase kinase 11 (Q16584 whole entry): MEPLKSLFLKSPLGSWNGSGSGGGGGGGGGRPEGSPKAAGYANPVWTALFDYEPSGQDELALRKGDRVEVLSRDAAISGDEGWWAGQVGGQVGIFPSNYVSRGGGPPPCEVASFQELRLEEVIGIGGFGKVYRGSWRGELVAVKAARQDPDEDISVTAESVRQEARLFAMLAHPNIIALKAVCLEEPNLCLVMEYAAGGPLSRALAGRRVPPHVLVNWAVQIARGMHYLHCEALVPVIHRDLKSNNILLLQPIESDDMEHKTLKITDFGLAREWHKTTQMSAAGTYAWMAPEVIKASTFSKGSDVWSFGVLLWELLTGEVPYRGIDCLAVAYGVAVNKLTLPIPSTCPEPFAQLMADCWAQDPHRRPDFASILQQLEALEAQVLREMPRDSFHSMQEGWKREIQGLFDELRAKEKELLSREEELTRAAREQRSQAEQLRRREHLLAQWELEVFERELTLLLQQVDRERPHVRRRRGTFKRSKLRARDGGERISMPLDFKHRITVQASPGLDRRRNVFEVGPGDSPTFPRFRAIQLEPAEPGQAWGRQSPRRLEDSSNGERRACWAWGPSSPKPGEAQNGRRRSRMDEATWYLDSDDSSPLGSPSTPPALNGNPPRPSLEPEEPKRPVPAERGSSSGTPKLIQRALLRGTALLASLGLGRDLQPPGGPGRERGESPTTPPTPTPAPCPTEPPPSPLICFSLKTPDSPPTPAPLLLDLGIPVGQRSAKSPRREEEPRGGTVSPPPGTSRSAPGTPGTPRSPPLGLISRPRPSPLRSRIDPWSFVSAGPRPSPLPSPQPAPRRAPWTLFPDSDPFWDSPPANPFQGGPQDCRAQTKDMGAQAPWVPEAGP
Chain of Serine/threonine-protein kinase SIK3 (Q9Y2K2 whole entry): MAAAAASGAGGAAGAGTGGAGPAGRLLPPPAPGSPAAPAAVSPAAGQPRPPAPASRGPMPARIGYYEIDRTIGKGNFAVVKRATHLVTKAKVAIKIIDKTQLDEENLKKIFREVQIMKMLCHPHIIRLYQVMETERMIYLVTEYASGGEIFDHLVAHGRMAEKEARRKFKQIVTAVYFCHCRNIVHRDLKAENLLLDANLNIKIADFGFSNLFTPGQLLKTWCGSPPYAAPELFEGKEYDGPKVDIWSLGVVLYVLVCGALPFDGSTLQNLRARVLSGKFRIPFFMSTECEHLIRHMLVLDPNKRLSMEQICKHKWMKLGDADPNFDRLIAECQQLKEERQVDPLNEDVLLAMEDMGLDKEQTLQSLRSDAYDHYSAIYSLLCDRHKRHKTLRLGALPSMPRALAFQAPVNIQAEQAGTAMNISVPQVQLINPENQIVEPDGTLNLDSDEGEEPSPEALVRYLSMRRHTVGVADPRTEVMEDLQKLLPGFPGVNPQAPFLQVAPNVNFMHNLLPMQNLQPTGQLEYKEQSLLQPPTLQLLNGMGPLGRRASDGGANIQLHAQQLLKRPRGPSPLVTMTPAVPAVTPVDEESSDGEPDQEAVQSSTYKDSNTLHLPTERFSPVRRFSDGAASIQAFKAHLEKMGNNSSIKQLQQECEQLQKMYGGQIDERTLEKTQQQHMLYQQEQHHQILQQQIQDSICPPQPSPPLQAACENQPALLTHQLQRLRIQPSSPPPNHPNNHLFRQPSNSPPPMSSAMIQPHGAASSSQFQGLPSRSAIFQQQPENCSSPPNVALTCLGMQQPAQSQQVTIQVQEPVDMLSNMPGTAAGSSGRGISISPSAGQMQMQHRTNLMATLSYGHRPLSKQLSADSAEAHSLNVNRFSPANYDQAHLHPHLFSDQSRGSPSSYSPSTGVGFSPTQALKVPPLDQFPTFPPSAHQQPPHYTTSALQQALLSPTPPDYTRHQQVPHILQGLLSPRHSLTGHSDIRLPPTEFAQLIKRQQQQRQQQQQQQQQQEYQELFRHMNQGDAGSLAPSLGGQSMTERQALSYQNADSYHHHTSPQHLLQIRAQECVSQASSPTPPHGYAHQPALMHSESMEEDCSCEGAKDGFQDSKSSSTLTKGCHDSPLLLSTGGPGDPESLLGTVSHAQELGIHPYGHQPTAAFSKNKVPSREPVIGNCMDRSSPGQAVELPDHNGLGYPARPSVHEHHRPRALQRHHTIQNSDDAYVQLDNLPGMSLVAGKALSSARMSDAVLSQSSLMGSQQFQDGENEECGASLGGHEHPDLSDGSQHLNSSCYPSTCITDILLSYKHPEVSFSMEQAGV

Row | IC50 [4] | IC50 [5] | IC50 [6] | IC50 [8] | IC50 [9] | IC50 [10] | IC50 [11] | IC50 [12] | IC50 [13] | IC50 [15] | IC50 [18] | IC50 [20] | Compound | IC50 [1] | IC50 [2] | IC50 [3] | IC50 [7] | IC50 [14] | IC50 [16] | IC50 [17] | IC50 [19] | also measured
1 | 31 µM | > 10 µM | > 10 µM | 18 µM | > 10 µM | 40 µM | 19 µM | 21 µM | 18 µM | > 10 µM | > 10 µM | > 10 µM | COc1cc(Br)cc2[nH]c(I)c(-c3cnc(-c4ccc[nH]4)o3)c12 | > 10 µM | > 10 µM | > 10 µM | > 10 µM | > 10 µM | > 10 µM | > 10 µM | > 10 µM | IC50 [21]: > 10 µM
2 |  |  |  |  |  |  |  |  |  |  |  |  | Cc1cc(=O)c2c(O)cc(O)c([C@@H]3CCN(C)C[C@@H]3O)c2o1 |  |  |  |  |  |  |  |  | IC50 [22]: 300 nM
3 | 7.8 µM | > 10 µM | > 10 µM | 43 µM | > 10 µM | > 10 µM | 23 µM | 22 µM | 36 µM | > 10 µM | > 10 µM | > 10 µM | COc1cc(Br)cc2[nH]cc(-c3cnc(-c4cc(Br)c[nH]4)o3)c12 | > 10 µM | > 10 µM | > 10 µM | > 10 µM | > 10 µM | > 10 µM | > 10 µM | > 10 µM | IC50 [21]: > 10 µM
